Measured values: ChEMBL document CHEMBL1201862, “PubChem BioAssay data set” (2004)
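In this assay, cells in 96-well plates receive the compound at five concentrations for 48 hours. Endpoints are linearly interpolated between the surrounding concentrations. GI50: concentration for 50% inhibition of growth.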 Active and inactive are the calls of the source. No stated cut-off is given here; in the data, active = GI50 up to about 1.1 µM and inactive = higher.

Columns and labels:
Assay in all cases: NCI-60 cell line screen, 48 h
EKVX = tested on: EKVX
HCT-116 = tested on: HCT-116
IGROV-1 = tested on: IGROV-1
KM12 = tested on: KM12
M14 = tested on: M14
NCI-H23 = tested on: NCI-H23
NCI-H460 = tested on: NCI-H460
OVCAR-4 = tested on: OVCAR-4
OVCAR-5 = tested on: OVCAR-5
SF-539 = tested on: SF-539
SK-MEL-5 = tested on: SK-MEL-5
SN12C = tested on: SN12C
SNB-75 = tested on: SNB-75
UACC-257 = tested on: UACC-257
UACC-62 = tested on: UACC-62
COLO 205 = tested on: COLO 205
A498 = tested on: A498

Measured: GI50

CC(=O)OC1CCn2nnc(COC(=O)NC(C)C)c21 (configuration not stated)
inactive: EKVX > 100 µM | HCT-116 > 100 µM | IGROV-1 > 100 µM | KM12 > 100 µM | M14 > 100 µM | NCI-H23 > 100 µM | NCI-H460 > 100 µM | OVCAR-4 > 100 µM | OVCAR-5 > 100 µM | SF-539 > 100 µM | SK-MEL-5 > 100 µM | SN12C > 100 µM | SNB-75 > 100 µM | UACC-257 > 100 µM | UACC-62 > 100 µM

C[C@H](C(=O)C12CC3CC(CC(C3)C1)C2)[C@H](O)c1ccccc1
inactive: COLO 205 15 µM | EKVX 43.7 µM | HCT-116 16.1 µM | IGROV-1 40 µM | KM12 25.5 µM | M14 29.6 µM | NCI-H23 36.7 µM | NCI-H460 35.2 µM | OVCAR-4 44 µM | OVCAR-5 17.5 µM | SF-539 33.3 µM | SK-MEL-5 17.6 µM | SN12C 19.5 µM | SNB-75 27 µM | UACC-257 29.9 µM | UACC-62 28.4 µM

CC[P+](C)(C)CC
inactive: COLO 205 > 100 µM | EKVX > 100 µM | HCT-116 > 100 µM | IGROV-1 > 100 µM | KM12 > 100 µM | M14 > 100 µM | NCI-H23 > 100 µM | NCI-H460 > 100 µM | OVCAR-4 > 100 µM | OVCAR-5 > 100 µM | SF-539 > 100 µM | SK-MEL-5 > 100 µM | SN12C > 100 µM | SNB-75 > 100 µM | UACC-257 > 100 µM | UACC-62 > 100 µM

O=C(O)COc1ccc2c3c1C(=O)CCC3CO2 (configuration not stated)
inactive: A498 > 100 µM | COLO 205 > 100 µM | EKVX > 100 µM | HCT-116 > 100 µM | IGROV-1 > 100 µM | KM12 > 100 µM | M14 > 100 µM | NCI-H23 > 100 µM | NCI-H460 > 100 µM | OVCAR-4 > 100 µM | OVCAR-5 > 100 µM | SF-539 > 100 µM | SK-MEL-5 > 100 µM | SN12C > 100 µM | UACC-257 > 100 µM | UACC-62 > 100 µM

CN(C)CCC(=O)N1CCc2c([nH]c3ccccc23)C1c1cccnc1 (configuration not stated)
inactive: A498 > 100 µM | EKVX > 100 µM | HCT-116 > 100 µM | IGROV-1 > 100 µM | KM12 > 100 µM | M14 > 100 µM | NCI-H23 > 100 µM | NCI-H460 > 100 µM | OVCAR-4 > 100 µM | OVCAR-5 > 100 µM | SF-539 > 100 µM | SK-MEL-5 > 100 µM | SN12C > 100 µM | SNB-75 78.3 µM | UACC-257 28.5 µM | UACC-62 > 100 µM

Cc1cn(C2CC(O)C(CO)O2)c(=O)n2nnnc12 (configuration not stated)
inactive: A498 > 100 µM | COLO 205 > 100 µM | EKVX > 100 µM | HCT-116 > 100 µM | IGROV-1 > 100 µM | KM12 > 100 µM | M14 > 100 µM | NCI-H23 > 100 µM | NCI-H460 > 100 µM | OVCAR-4 > 100 µM | OVCAR-5 > 100 µM | SF-539 > 100 µM | SK-MEL-5 > 100 µM | SNB-75 > 100 µM | UACC-257 > 100 µM | UACC-62 > 100 µM

CC(=O)O[C@H]1CC[C@@]2(C)C(CC[C@]3(C)C2CC[C@]2(C)Oc4c(C)cc(O)cc4C[C@@H]23)C1(C)C (some centres not stated)
inactive: A498 12.7 µM | COLO 205 14.5 µM | EKVX 19.5 µM | HCT-116 5.27 µM | IGROV-1 13.5 µM | KM12 6.71 µM | M14 11.9 µM | NCI-H23 6.56 µM | NCI-H460 4.11 µM | OVCAR-4 7.64 µM | OVCAR-5 10.9 µM | SK-MEL-5 5.87 µM | SN12C > 10 µM | SNB-75 2.96 µM | UACC-257 8.47 µM | UACC-62 8.59 µM

O=C1Nc2ccccc2C12CCCC2
inactive: A498 > 100 µM | COLO 205 > 100 µM | EKVX 72.3 µM | HCT-116 > 100 µM | IGROV-1 > 100 µM | KM12 > 100 µM | M14 > 100 µM | NCI-H23 > 100 µM | NCI-H460 > 100 µM | OVCAR-4 > 100 µM | SF-539 4.24 µM | SK-MEL-5 > 100 µM | SN12C > 100 µM | SNB-75 54.6 µM | UACC-257 > 100 µM | UACC-62 > 100 µM

CCOC(=O)C(=O)Nc1ccccc1C(F)(F)F
inactive: A498 > 100 µM | COLO 205 > 100 µM | EKVX > 100 µM | HCT-116 > 100 µM | IGROV-1 > 100 µM | KM12 > 100 µM | M14 > 100 µM | NCI-H23 > 100 µM | NCI-H460 > 100 µM | OVCAR-4 > 100 µM | OVCAR-5 > 100 µM | SF-539 > 100 µM | SN12C > 100 µM | SNB-75 79.4 µM | UACC-257 > 100 µM | UACC-62 > 100 µM

COc1ccc2nccc(C3OC(=O)N4CCC(=O)CC34)c2c1 (configuration not stated)
inactive: A498 > 100 µM | COLO 205 > 100 µM | EKVX > 100 µM | HCT-116 > 100 µM | IGROV-1 > 100 µM | KM12 > 100 µM | M14 > 100 µM | NCI-H23 > 100 µM | NCI-H460 > 100 µM | OVCAR-4 > 100 µM | OVCAR-5 > 100 µM | SF-539 > 100 µM | SK-MEL-5 > 100 µM | SN12C > 100 µM | UACC-257 > 100 µM | UACC-62 > 100 µM

Cc1cc([N+](=O)[O-])c(C)c2c1[nH]c1ccc(/C(CCC3CCCC3)=N\N)cc12
inactive: COLO 205 17.5 µM | EKVX 17.4 µM | HCT-116 9.89 µM | KM12 16 µM | M14 17.6 µM | NCI-H23 14.7 µM | NCI-H460 18 µM | OVCAR-4 27.4 µM | OVCAR-5 > 10 µM | SF-539 17.3 µM | SK-MEL-5 18.2 µM | SN12C 14.8 µM | SNB-75 22 µM | UACC-257 20 µM

O=C1/C=C(/c2ccc(O)cc2)[C@@H](OC2OC(CO)C(O)C(O)C2O)Cc2ccc(O)cc2O1.O=C1/C=C(/c2ccc(O)cc2)[C@H](O)Cc2ccc(O[C@@H]3OC(CO)C(O)C(O)C3O)cc2O1 (some centres not stated)
inactive: A498 > 100 µM | COLO 205 > 100 µM | EKVX > 100 µM | HCT-116 > 100 µM | IGROV-1 > 100 µM | KM12 > 100 µM | M14 > 100 µM | NCI-H23 > 100 µM | NCI-H460 > 100 µM | OVCAR-4 > 100 µM | OVCAR-5 > 100 µM | SF-539 > 100 µM | SK-MEL-5 > 100 µM | SN12C > 100 µM | UACC-257 > 100 µM | UACC-62 > 100 µM

C[C@H](NC(=O)n1c2ccccc2c2ccccc21)C(=O)O
inactive: COLO 205 > 100 µM | EKVX > 100 µM | HCT-116 > 100 µM | IGROV-1 > 100 µM | KM12 > 100 µM | NCI-H23 > 100 µM | NCI-H460 > 100 µM | OVCAR-5 > 100 µM | SF-539 > 100 µM | SK-MEL-5 > 100 µM | SN12C > 100 µM | UACC-257 > 100 µM | UACC-62 > 100 µM
